Here are results for 13 compounds from patent publication US8138184B2, “Isoxazole derivatives and pharmaceutical compositions comprising the same” (Kaohsiung Medical University, priority 2008, dated 2012).

Data set [1] has as its system Human adipose tissue derived stem cells (hADSCs). Nature of the data set: Cytotoxicity assay by lactate dehydrogenase (LDH) leakage in hADSCs. Format: cell-based. As to conditions: 10 μM, % of total cell toxicity. As to the method: (§1) Human adipose tissue derived stem cells (hADSCs), which is derived from adipose tissue, were selected an maintained in a keratinocyte SFM medium (Gibco BRL, Gaithersburg, Md.) supplemented with 5% FBS, 100 U/ml of penicillin and streptomycin.
(§2) New synthetic compounds were dissolved in DMSO to a final concentration of 10 mM and stored at −20° C. The concentration used was 10 μM and freshly diluted to the medium with a final concentration of DMSO at 0.1%. Control cultures were treated with the same amount of DMSO as used in the corresponding experiments.
Lactate dehydrogenase (LDH) leakage from cells was measured to quantify the cytotoxicity by using a cytotoxicity detection kit (Roche, Germany) (Crowston, J. G. et al Invest. Ophthalmol. Vis. Sci. 1998, 39, 449). Cells were previously seeded into 48-well plates (4×10^4 cells/well). After a drug treatment, the supernatants and cell layers of the cultures were collected for assay. According to the manufacturer's guidelines for the detection kit, cell layers were lysed with 1% TritonX-100, and cell lysates and supernatants were assayed in a 96-well plate, respectively. Briefly, 100 μL of catalyst solution was added in each assay well for 20 min. Absorbance was measured with an ELISA reader with a 490 nm filter. LDH leakage was shown as relative activity (% of total cell toxicity).

Data set [2] in a line: Cell viability by MTT assay in hADSCs. The data set is classed as cell-based, human. To be noted: human, human adipose tissue derived stem cells (hADSCs), % of control. How it is done: as §1, §2
The MTT assay is a calorimetric assay based on the ability of the viable cells to reduce a soluble yellow tetrazolium salt to blue formazan crystals (Carmichael, J. et. el. Cancer Research 1987, 47, 936). After compound treatments, 350 μL of MTT solution ([…] in PBS) were added to each well and incubated for 4 hrs. DMSO was then added for another 0.5 hrs to thoroughly dissolve the dark blue crystals. The absorbance at 570 nm was measured with an ELISA reader. Inhibition of mitochondrial metabolism was shown as relative activity (% of control).

The subject of data set [3] is NCI-H460 cells (non-small-cell lung cancer). Nature of the data set: Cytotoxicity assay (MTS reduction), NCI-H460. Format: cell-based, human. As to conditions: for activity at 4 µg/mL / activity at 20 µg/mL: Homo sapiens, NCI-H460, 72 h, 3 days, % of DMSO control, read-out: Growth percentage NCI-H460 (Lung); for activity at 4 µg/mL / inhibition of growth of NCI-H460 (in words): 4 μg/mL; for activity at 20 µg/mL: 20 μg/mL. How it is done: (§3) MCF-7 cells (human breast adenocarcinoma), NCI-H460 cells (non-small-cell lung cancer) and SF-268cells (glioblastoma cells) were cultured in a Dulbecco's modified Eagle's medium supplemented with a 10% fetal calf serum and a nonessential amino acid (Life Technologies, Inc.) and maintained at 37° C. in a humidified incubator with 5% CO2.
(§4) Human cancer cells were seeded in 96-well microtiter plates at a density of 6500, 2500 and 7500 cells/well in 100 μl of culture medium for MCF-7, NCI-H460, and SF-268, respectively. […] Cells were treated with test compounds for 3 days. Cell viability was determined by the 5-[3-(carboxymethoxy)-phenyl]-2-(4,5-dimethylthiazolyl)-3-(4-sulfophenyl)tetrazolium salt (MTS) reduction assay. Actinomycin D (10 μM, final concentration) and DMSO (0.1%, final concentration) were used as positive and vehicle controls, respectively. Results were expressed as a % of the DMSO control.

Data set [4] concerns MCF-7 cells (human breast adenocarcinoma). Briefly: Cytotoxicity assay (MTS reduction), MCF-7. The data set is classed as cell-based. As to conditions: for activity at 4 µg/mL / activity at 20 µg/mL: Homo sapiens, MCF7, 72 h, 3 days, % of DMSO control, read-out: Growth percentage MCF7 (Breast); for activity at 4 µg/mL / inhibition of growth of MCF7 (in words): 4 μg/mL; for activity at 20 µg/mL: 20 μg/mL. As to the method: as §3, §4

For data set [5], the system named is SF-268 cells (glioblastoma cells). Nature of the data set: Cytotoxicity assay (MTS reduction), SF-268. The data set is classed as cell-based, human. To be noted: for activity at 4 µg/mL / activity at 20 µg/mL: Homo sapiens, SF-268, 72 h, 3 days, % of DMSO control, read-out: Growth percentage SF-268 (CNS); for activity at 4 µg/mL / inhibition of growth of SF-268 (in words): 4 μg/mL; for activity at 20 µg/mL: 20 μg/mL. How it is done:
as §3, §4

As to `COc1ccc(-c2cnoc2-c2ccc(OC(C)C)cc2O)cc1` [compound 3, 5-Isopropoxy-2-[4-(4-methoxyphenyl)isoxazol-5-yl]phenol], the “Cell cytotoxicity (3 days, LDH)” value in data set [1] is on record as 68%. The compound also registered a viability at 3 days, 10 µM in data set [2] of 6%.
Consider `COc1ccc(-c2cnoc2-c2ccc(OC(C)C)cc2OCCCCCCCN2CCCCC2)cc1` [5l, 5-{4-Isopropoxy-2-[7-(piperidin-1-yl)heptyloxy]phenyl}-4-(4-methoxyphenyl)isoxazole], for which the activity at 4 µg/mL in data set [3] was 8%; in data set [4], 29%; in data set [5], 25%. In addition, the activity at 20 µg/mL in data set [3] was 1%; in data set [4] it was 1%; in data set [5], 2%. For the same compound, the “Cell cytotoxicity (3 days, LDH)” value in data set [1] was determined as 0%. The compound further gave a viability at 3 days, 10 µM in data set [2] of 58%.
As for `COc1ccc(-c2cnoc2-c2ccc(OC(C)C)cc2OCCCCCCN2CCCCC2)cc1` [5h, 5-{4-isopropoxy-2-[6-(piperidin-1-yl)hexyloxy]phenyl}-4-(4-methoxyphenyl)isoxazole], in data set [3], the “inhibition of growth of NCI-H460 (in words)” value is “significantly inhibit the growth”, the activity at 4 µg/mL amounted to 2% and the activity at 20 µg/mL was -1%. For the same compound, in data set [4], the “inhibition of growth of MCF7 (in words)” value is on record as “significantly inhibit the growth”, the activity at 4 µg/mL was determined as 13% and the activity at 20 µg/mL was -3%. Also, the “Cell cytotoxicity (3 days, LDH)” value in data set [1] worked out at 0%. In data set [5], the “inhibition of growth of SF-268 (in words)” value is on record as “significantly inhibit the growth”, the activity at 4 µg/mL was 4% and the activity at 20 µg/mL is -1%. Besides, the viability at 3 days, 10 µM in data set [2] worked out at 57%.
As for `COc1ccc(-c2cnoc2-c2ccc(OC(C)C)cc2OCCCCCCCN2CCOCC2)cc1` [5j, 4-{7-{5-isopropoxy-2-[4-(4-methoxyphenyl)isoxazol-5-yl]phenoxy}heptyl}morpholine], the activity at 4 µg/mL in data set [3] worked out at 10%; in data set [4] it was 25%; in data set [5], 32%. The activity at 20 µg/mL in data set [3] is 0%; in data set [4] it was 1%; in data set [5], 2%. In addition, the “Cell cytotoxicity (3 days, LDH)” value in data set [1] is 12%. Besides, the viability at 3 days, 10 µM in data set [2] came out at 54%.
Take `COc1ccc(-c2cnoc2-c2ccc(OC(C)C)cc2OCCCCCCCN2CCCC2)cc1` [5i, 5-{4-Isopropoxy-2-[7-(pyrrolidin-1-yl)heptyloxy]phenyl}-4-(4-methoxyphenyl)isoxazole]: the activity at 4 µg/mL in data set [3] was 11%; in data set [4] it was 32%; in data set [5], 30%. In addition, the activity at 20 µg/mL in data set [3] was found to be 1%; in data set [4], 2%; in data set [5], 2%. For the same compound, in data set [1], the “Cell cytotoxicity (3 days, LDH)” value came out at 0%. The compound also yielded a viability at 3 days, 10 µM in data set [2] of 63%.
In the case of `COc1ccc(-c2cnoc2-c2ccc(OC(C)C)cc2OCCCCN2CCOCC2)cc1` [5b, 4-{4-{5-Isopropoxy-2-[4-(4-methoxyphenyl)isoxazol-5-yl]phenoxy}butyl}morpholine], the figures for the activity at 4 µg/mL in data set [3], in data set [4] and in data set [5] were 52%, 63% and 58%, respectively. Moreover, the activity at 20 µg/mL worked out at 1% in data set [3], 4% in data set [4] and 3% in data set [5]. For the same compound, the “Cell cytotoxicity (3 days, LDH)” value in data set [1] is listed as 13%. For the same compound, the viability at 3 days, 10 µM in data set [2] was determined as 58%.
Turning to `COc1ccc(-c2cnoc2-c2ccc(OC(C)C)cc2OCCCCN2CCCCC2)cc1` [5d, 5-{4-Isopropoxy-2-[4-(piperidin-1-yl)butoxy]phenyl}-4-(4-methoxyphenyl)isoxazole], the activity at 4 µg/mL is 68% in data set [3], 90% in data set [4] and 119% in data set [5]. Moreover, the activity at 20 µg/mL in data set [3] came to 1%; in data set [4], 1%; in data set [5], 2%. Further, the “Cell cytotoxicity (3 days, LDH)” value in data set [1] is on record as 0%. Besides, the viability at 3 days, 10 µM in data set [2] came to 78%.
For `COc1ccc(-c2cnoc2-c2ccc(OC(C)C)cc2OCCCCCCN2CCOCC2)cc1` [5f, 4-{6-{5-Isopropoxy-2-[4-(4-methoxyphenyl)isoxazol-5-yl]phenoxy}hexyl}morpholine], the activity at 4 µg/mL came out at 17% in data set [3], 44% in data set [4] and 38% in data set [5]. Further, the figures for the activity at 20 µg/mL in data set [3], in data set [4] and in data set [5] were 0%, -1% and 1%, respectively. The “Cell cytotoxicity (3 days, LDH)” value in data set [1] worked out at 17%. The viability at 3 days, 10 µM in data set [2] was determined as 53%.
As for `COc1ccc(-c2cnoc2-c2ccc(OCCCCCCN3CCNCC3)cc2O)cc1` [8a], the activity at 4 µg/mL in data set [3] worked out at 29%; in data set [4] it was 7%; in data set [5] it was 68%. Also, the activity at 20 µg/mL in data set [3] was 0%; in data set [4], -1%; in data set [5], -2%. In addition, the “Cell cytotoxicity (3 days, LDH)” value in data set [1] is 0%. The viability at 3 days, 10 µM in data set [2] was found to be 64%.
As to `COc1ccc(-c2cnoc2-c2ccc(OC(C)C)cc2OCCCCN2CCNCC2)cc1` [5c, 5-{4-Isopropoxy-2-[4-(piperazin-1-yl)butoxy]phenyl}-4-(4-methoxyphenyl)isoxazole], the activity at 4 µg/mL came out at 29% in data set [3], 7% in data set [4] and 68% in data set [5]. Besides, the activity at 20 µg/mL in data set [3] is 0%; in data set [4], -1%; in data set [5], -2%. Moreover, in data set [1], the “Cell cytotoxicity (3 days, LDH)” value came to 33%. For the same compound, the viability at 3 days, 10 µM in data set [2] stood at 86%.
For `CC(C)Oc1ccc2c(=O)c(-c3ccccc3)coc2c1` [Ipriflavone, reference compound], the “Cell cytotoxicity (3 days, LDH)” value in data set [1] was 0%. In addition, the viability at 3 days, 10 µM in data set [2] worked out at 77%.
Turning to `COc1ccc(-c2cnoc2-c2ccc(OC(C)C)cc2OCCCCCCCN2CCNCC2)cc1` [5k], the activity at 4 µg/mL is 0% in data set [3], 1% in data set [4] and 3% in data set [5]. The activity at 20 µg/mL in data set [3], in data set [4] and in data set [5] was 1% each time. Further, the “Cell cytotoxicity (3 days, LDH)” value in data set [1] is recorded as 0%. Moreover, the viability at 3 days, 10 µM in data set [2] came out at 68%.
On to `COc1ccc(-c2cnoc2-c2ccc(OC(C)C)cc2OCCCCCCN2CCNCC2)cc1` [5g, 5-{4-Isopropoxy-2-[6-(piperazin-1-yl)hexyloxy]phenyl}-4-(4-methoxyphenyl)isoxazole], for which, in data set [3], the “inhibition of growth of NCI-H460 (in words)” value was “significantly inhibit the growth”, the activity at 4 µg/mL was 0% and the activity at 20 µg/mL is -1%. Further, in data set [4], the “inhibition of growth of MCF7 (in words)” value is “significantly inhibit the growth”, the activity at 4 µg/mL came out at 14% and the activity at 20 µg/mL is -3%. Further, the “Cell cytotoxicity (3 days, LDH)” value in data set [1] amounted to 0%. Also, in data set [5], the “inhibition of growth of SF-268 (in words)” value is given as “significantly inhibit the growth”, the activity at 4 µg/mL is 20% and the activity at 20 µg/mL was -1%. The same compound yielded a viability at 3 days, 10 µM in data set [2] of 60%.
